Data from publication PMC12190436, “5-Ene-2-arylaminothiazol-4(5H)-ones Induce Apoptosis in Breast Cancer Cells” (Cells, 2025).

How the values were obtained:
A172 = experiment: MTT cell viability assay; format: cell-based; details: Homo sapiens
Excerpt: (§1) All of the tested cell lines were acquired from the American Type Culture Collection (ATCC, Manassas, VA, USA), including human breast cancer cell lines (MCF-7, MDA-MB-231), human gastric cancer cell line (AGS), human colorectal cancer cell lines (HT-29, DLD-1), human glioblastoma cancer cell lines (T98G, A172), mouse astrocyte type I clone (C8-D1A), human normal epithelial breast cells (MCF-10A) and primary dermal fibroblast (HDFa). Such cell lines as AGS, MCF-7, MDA-MB-231, A172, T98G, C8-D1A, and primary dermal fibroblast (HDFa) were cultured in complete medium–DMEM (Corning, Kennebunk, ME, USA). RPMI-1640 (ATCC, Manassas, VA, USA) was used for the DLD-1 cell line, and McCoy’s 5A (PAN-Biotech, Aidenbach, Germany) for the HT-29 cell line. To all utilized media additionally was added 10% fetal bovine serum (FBS) (Eurx, Gdansk, Poland) and 1% penicillin and streptomycin solution (Corning, Kennebunk, ME, USA). MCF-10A cells were incubated in MEGM (Mammary Epithelial Cell Growth Medium) BulletKit supplemented with penicillin/streptomycin cocktail and 5% horse serum. All cells were cultured at 37 °C in an atmosphere with 5% CO₂ in tissue culture dishes (Sarstedt, Numbrecht, Germany). For experiments, cells were washed with phosphate-buffered saline (PBS) (Corning, Kennebunk, ME, USA) followed by the addition of 0.05% trypsin with 0.02% EDTA (Corning, Kennebunk, ME, USA). Scepter 3.0 cell counter (Merck Millipore, Burlington, MA, USA) was applied before each seeding to calculate the number of cells. For the next analyses, cells were reseeded in 6-well plates, 24-well plates, and 96-well plates.
(§2) MTT (3-(4,5-dimethylthiazol-2-yl)-2,5-diphenyltetrazolium bromide) assay method was utilized to analyze compound effects on cell viability. All cell lines were seeded in 96-well plates with 1 × 10^4 cells per well. After 24 h, cells were treated with the tested compounds and reference drug at concentrations of 0.1, 1, 2.5, 5, 10, and 20 µM for 24, 48, or 72 h. Next, a solution of 3-(4,5-dimethyl-2-thiazolyl)-2,5-diphenyl-2H-tetrazolium bromide (Sigma-Aldrich, St. Louis, MO, USA) in PBS with a concentration of 5 mg/mL was prepared. After the incubation with tested compounds, 10 µL of the prepared MTT solution was applied to each well, followed by 2 h of incubation at 37 °C. Next, cells underwent lysis by adding 100 µL of pre-prepared lysing buffer (containing 25 mM HCl, 2% acetic acid, 3% DMF, and 5% SDS, with a pH of 4.7). The absorbance was measured using a UV-VIS Helios Gamma (Unicam/ThermoFisher Scientific Inc., Cleveland, OH, USA) at 570 nm wavelength. The cells incubated with vehicle substance (0.1% DMSO) were taken as controls.
(§3) To investigate the cytotoxic potential of the newly synthesized compounds, a comprehensive assessment was conducted utilizing the MTT assay. This assay was applied on a diverse panel of cell lines, such as human breast cancer cell lines (MCF-7 and MDA-MB-231), human gastric cancer cell line (AGS), human colorectal cancer cell lines (HT-29 and DLD-1), human glioblastoma cancer cell lines (T98G and A172), mouse astrocyte type I clone cells (C8-D1A), primary dermal fibroblast (HDFa), and human normal breast cells (MCF-10A) for 24, 48, and/or 72 h.

AGS = experiment: MTT cell viability assay; format: cell-based; details: Homo sapiens
Excerpt: as §1, §2, §3

DLD-1 = experiment: MTT cell viability assay; format: cell-based; details: Homo sapiens
Excerpt: as §1, §2, §3

HT-29 = experiment: MTT cell viability assay; format: cell-based; details: Homo sapiens
Excerpt: as §1, §2, §3

MCF-7 = experiment: MTT cell viability assay; format: cell-based; details: Homo sapiens
Excerpt: as §1, §2, §3

MDA-MB-231 = experiment: MTT cell viability assay; format: cell-based; details: Homo sapiens
Excerpt: as §1, §2, §3

[1] = test system: Primary Dermal Fibroblast (HDFa); experiment: MTT cell viability assay; format: cell-based; details: Homo sapiens, normal cells
Excerpt: as §1, §2, §3

T98G = experiment: MTT cell viability assay; format: cell-based; details: Homo sapiens
Excerpt: as §1, §2, §3

MCF-7 cells = experiment: Annexin V-FITC/propidium iodide flow cytometry; format: cell-based, human; details: 24 h
Protocol: The MCF-7 cells were seeded on 6-well plates (1 × 10^5 cells per well) and incubated for 24 h. Afterwards, the cells were washed, and tested compounds (Les-6416, Les-6418, Les-6381, Les-6423, and Les-6424) were added in a concentration of 5 µM. The reference drug doxorubicin hydrochloride was applied in a concentration of 0.5 µM. The cells were incubated with the compounds for 24 h. Afterwards, the cells were washed several times with cold PBS and the cell suspensions were prepared in the binding buffer from the kit at a concentration of 1 × 10^6 cells/mL. A total of 100 µL of suspension was collected from each sample and transferred to the tubes. After that, 5 µL of Annexin V-FITC and 5 µL of propidium iodide were added. After 15 min of incubation at room temperature in a dark environment, the content of the tubes was filled with binding buffer up to 500 µL and assessed by BD FACSCanto II flow cytometer (Becton Dickinson Biosciences, San Jose, CA, USA). A total of 1 × 10^4 events were measured for each sample. The results were investigated by applying FACSDiva software Version 6.1.3. (BD Biosciences Systems, San Jose, CA, USA).
To assess the effects of novel compounds on apoptosis, we utilized flow cytometry analysis with Annexin V-FITC and Propidium Iodide double staining. In this way, we could distinguish between different cell populations based on their state: unstained or alive cells, cells stained with propidium iodide or necrotic cells, cells only stained with FITC-labeled annexin V or early apoptotic cells, and cells stained with both annexin V and propidium iodide or late apoptotic cells.

- IC50 (AGS; AGS 24 h): > 20 µM
- IC50 (AGS; AGS 48 h): > 20 µM
- IC50 (DLD-1; DLD-1 24 h): > 20 µM
- IC50 (DLD-1; DLD-1 48 h): > 20 µM
- IC50 (HT-29; HT-29 24 h): > 20 µM
- IC50 (HT-29; HT-29 48 h): > 20 µM
- IC50 (MCF-7; MCF7, MCF-7 24 h): > 20 µM
- IC50 (MCF-7; MCF7, MCF-7 48 h): > 20 µM
- IC50 (MCF-7; MCF7, MCF-7 72 h): > 20 µM
- IC50 (MDA-MB-231; MDA-MB-231 24 h): > 20 µM
- IC50 (MDA-MB-231; MDA-MB-231 48 h): > 20 µM
- IC50 (MDA-MB-231; MDA-MB-231 72 h): > 20 µM
Compound: COc1cc(NC2=NC(=O)C(=Cc3ccco3)S2)cc(OC)c1OC [Les-6424, 5-(Furan-2-ylmethylene)-2-((3,4,5-trimethoxyphenyl)amino)thiazol-4(5H)-one]
- IC50 (A172; A 172, A172 24 h): > 20 µM
- IC50 (A172; A 172, A172 48 h): > 20 µM
- IC50 ([1]; HDFa 24 h): > 20 µM
- IC50 ([1]; HDFa 48 h): > 20 µM
- IC50 ([1]; HDFa 72 h): > 20 µM
- IC50 (T98G; T98G 24 h): > 20 µM
- IC50 (T98G; T98G 48 h): > 20 µM
- proapoptotic effect in comparison to the control (MCF-7 cells; 5 µM): did not have any statistically significant results
- viability at 5 µM (MCF-7 cells; Homo sapiens, MCF7, 5 µM, read-out: Viable cells, cell population): 90.4%
